# Literature values in PMC8124668, “Preclinical Assessment Addressing Intravenous Administration of a [^68Ga]Ga-PSMA-617 Microemulsion: Acute In Vivo Toxicity, Tolerability, PET Imaging, and Biodistribution” (Molecules, 2021).
# Test system: male rats
# Parameters: method as in PMID 28283702
# Conditions: once weekly IV bolus on days 1, 8, 15 and 22, at 400 mg/kg
structure (smiles),measurement,value
"O=C(O)CCC(NC(=O)NC(CCCCNC(=O)C(Cc1ccc2ccccc2c1)NC(=O)C1CCC(CNC(=O)CN2CCN(CC(=O)O)CCN(CC(=O)O)CCN(CC(=O)O)CC2)CC1)C(=O)O)C(=O)O (stereo not shown) [PSMA-617, 2-[3-(1-Carboxy-5-{3-naphthalen-2-yl-2-[(4-{[2-(4,7,10-tris-carboxymethyl-1,4,7,10-tetraaza-cyclododec-1-yl)-acetylamino]-methyl}-cyclohexanecarbonyl)-amino]-propionylamino}-pentyl)-ureido]-pentanedioic acid]",local or systemic intolerance reactions,No signs of local or systemic intolerance reactions
